Results reported in patent publication US5352685A, “Thieno[3,2-b]pyridine derivatives” (priority 1992, dated 1994).
Counter-ions that a name gives are not always drawn.

How the values were obtained:
[1] = test system: dog gastric contraction; assay: Promoting action of dog gastric contraction; type: in vivo, dog (adult mongrel); conditions: Canis lupus familiaris, iv, 0.5 h; i.v.; starved dogs; contraction for 30-minute interval after dose vs. IMC contraction immediately before; read-out: ED50 (dose developing 50% of the IMC contraction)
Procedure: 2) Promoting action of dog gastric contraction An implant-type strain-gauge transducer was sutured onto the serosa at the autrum (about 3 cm above pylorus) of adult mongrel dogs, weighed 11 to 15 kg, so as to determine the contraction of the circular muscle. Two weeks or more after the surgery, the gastric contraction was recorded for analysis with a data processing device. […] The dog was put to starvation for about 16 hours. Ten minutes after the completion of one IMC, a test compound was intravenously administered. The contraction for the 30-minute interval thereafter was represented as a percentage (%) to the IMC contraction having occurred immediately before, and the dose developing the 50% contraction was defined as ED50.

[2] = Acute toxicity, oral, mice; type: in vivo, mouse (male ddy); conditions: orally 1000 mg/kg; 3 mice per compound; observation 7 days
Procedure: For the test of acute toxicity, male ddy mice (body weight; 25 to 30 g, 3 mice for one test compound) were used. Test compound of Example 1 or 2 was orally administered at 1000 mg/kg.

[3] = test system: mouse gastric emptying; assay: Promoting action of mouse gastric emptying; type: in vivo; conditions: 1 mg/kg, p.o.; 24-hour starved male ddy mice; control group (distilled water) defined as 100%
Procedure: Promoting action of mouse gastric emptying Male, ddy mice (body weight; 20 to 25 g) were used. 24-Hour after starvation 1 mg/kg test compounds dissolved in distilled water were orally administered (10 ml/kg). To the control group distilled water was orally administered (10 ml/kg). One hour later, a 2000 ppm phenol red solution (suspended in aqueous 0.5% carboxymethyl cellulose solution) was administered to each mouse (liquid dose; 0.05 ml/mouse). Then, 15 minutes later, the animals were killed to remove the stomachs. The phenol red retained in the stomachs was developed in 20 ml of a 2.75% trisodium phosphate solution, and analyzed with an absorption photometer at a wave length of 540 nm (A). Immediately after the phenol red solution was administered, the animals were killed to quantitatively determine the phenol red left in the stomachs (B). The difference in the amount of phenol red between A and B (B-A) was designated as gastric emptying. The gastric emptying of the test compounds were shown in Table 4 below, provided that the gastric emptying of the control group was defined as 100%.

[4] = target: T1, 5-HT3 (serotonin 3) receptor (Rattus norvegicus, UniProt P35563); assay: 5-HT3 antagonistic action (antagonistic action of Bezold-Jarish reflex) in anesthetized rat; type: in vivo; conditions: iv, 5 min; i.v.; 5-HT 8 μg/kg i.v.; male Wistar rat under urethane anesthesia; read-out: ID50 (dose with inhibition ratio of 50%, Bezold-Jarish reflex)
T1 construct: from tissue; host or cells: living anaesthetized male Wistar rat (in vivo; endogenous receptor)
T1 sequence (P35563 24-483): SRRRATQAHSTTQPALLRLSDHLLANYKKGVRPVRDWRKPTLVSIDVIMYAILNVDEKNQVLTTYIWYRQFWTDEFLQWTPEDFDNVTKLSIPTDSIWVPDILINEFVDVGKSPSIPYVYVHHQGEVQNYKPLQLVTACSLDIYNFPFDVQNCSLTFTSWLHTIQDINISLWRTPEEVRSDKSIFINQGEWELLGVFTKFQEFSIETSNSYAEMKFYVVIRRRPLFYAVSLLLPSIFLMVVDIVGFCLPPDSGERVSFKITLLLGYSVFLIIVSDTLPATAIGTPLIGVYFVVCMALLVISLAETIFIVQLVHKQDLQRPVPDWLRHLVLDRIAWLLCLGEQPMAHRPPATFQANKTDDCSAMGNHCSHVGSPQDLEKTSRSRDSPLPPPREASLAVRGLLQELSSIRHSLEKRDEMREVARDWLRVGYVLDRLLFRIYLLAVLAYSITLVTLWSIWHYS
Procedure: 3) 5-HT3 antagonistic action (antagonistic action of Bezold-Jarish reflex)
According to the following method, the assessment of a compound in terms of the antagonistic action of Bezold-Jarish reflex triggered by 5-HT was carried out in a rat under anesthesia.
A male Wistar rat, weighed 300 to 400 g, was anesthetized with an intra-parenteral dose of 1.2 g/kg urethane, to monitor the heart rate triggered by electrocardiography. Five minutes after saline was intravenously administered (0.5 ml/kg) to the rat, 5-HT (8 μg/kg) dissolved in saline (0.5 ml/kg) was intravenously administered firstly, to measure the change in […] (A). To the same rat after 10 minutes interval, the test compound was intravenously administered, 5 minutes later 5-HT was administered in the same fashion, to measure the change in heart rate (B). Based on these values, the inhibition ratio of the test compound was calculated by the following formula:
inhibition ratio=(1-B/A)×100
Also, the dose with the inhibition ratio of 50% was defined as the ID50 of the test compound.

| Structure (SMILES) | ED50 [1] [µg/kg] | death (acute toxicity) [2] | Promoting Action of Gastric Emptying (%) [3] [%] | ED50 [4] [µg/kg] |
| --- | --- | --- | --- | --- |
| COc1cc(N)c(Cl)cc1C(=O)NC1CCN2CCCC1C2 (stereo not drawn) [BRL-24924, (endo)-4-amino-5-chloro-2-methoxy-N-[1-azabicyclo-(3.3.1)-non-4-yl]-benzamide hydrochloride, reference compound] | 100 |  |  |  |
| O=C(NC1CN2CCC1CC2)c1cnc2ccsc2c1O (stereo not shown) [Example 1, N-(1-azabicyclo[2.2.2]oct-3-yl)-7-hydroxythieno[3.2-b]pyridine-6-carboxamide] | 10 | no death | 147 | 0.15 |
| O=C(N[C@H]1CN2CCC1CC2)c1cnc2ccsc2c1O [Example 2, R-N-(1-azabicyclo[2.2.2]oct-3-yl)-7-hydroxythieno[3.2-b]pyridine-6-carboxamide] | 5 | no death | 185 |  |
| CN1[C@@H]2CC[C@H]1C[C@@H](NC(=O)c1cn(C)c3ccsc3c1=O)C2 [Example 10, (endo)-N-(8-methyl-8-azabicyclo[3.2.1]oct-3-yl)-4,7-dihydro-4-methyl-7-oxothieno[3.2-b]pyridine-6-carboxamide] |  |  | 140 |  |
| Cc1csc2c(O)c(C(=O)NC3CN4CCC3CC4)cnc12 (stereo not shown) [Example 11] |  |  | 152 |  |
